From ChEMBL document CHEMBL1201862, “PubChem BioAssay data set” (2004)
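Tested at 5 concentrations; 48 h exposure; 96-well plates; endpoints linearly interpolated, else capped at highest concentration. The concentration for 50% growth inhibition is given as GI50.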 The source made the active and inactive calls. Rule as the data show it: active = GI50 up to about 1.1 µM and inactive = higher.

Legend:
Test in all cases: NCI anticancer screen, dose series, 48 h
KM12 = tested on: KM12
MCF7 = tested on: MCF7
PC-3 = tested on: PC-3
SK-MEL-2 = tested on: SK-MEL-2
OVCAR-8 = tested on: OVCAR-8
LOX IMVI = tested on: LOX IMVI
HOP-62 = tested on: HOP-62
IGROV-1 = tested on: IGROV-1
OVCAR-3 = tested on: OVCAR-3
NCI-H23 = tested on: NCI-H23
HCT-116 = tested on: HCT-116
OVCAR-5 = tested on: OVCAR-5
NCI/ADR-RES = tested on: NCI/ADR-RES
DU-145 = tested on: DU-145
SK-MEL-28 = tested on: SK-MEL-28
SN12C = tested on: SN12C
SNB-75 = tested on: SNB-75
HCC 2998 = tested on: HCC 2998
OVCAR-4 = tested on: OVCAR-4
Malme-3M = tested on: Malme-3M

Measured: GI50

O=c1n(/N=C/c2ccccc2)c(=O)n2n1C1C=CC2CC1
inactive: KM12 > 100 µM | MCF7 > 100 µM | PC-3 > 100 µM | SK-MEL-2 > 100 µM | OVCAR-8 > 100 µM | LOX IMVI > 100 µM | HOP-62 > 100 µM | IGROV-1 > 100 µM | OVCAR-3 > 100 µM | NCI-H23 > 100 µM | HCT-116 > 100 µM | OVCAR-5 > 100 µM | NCI/ADR-RES > 100 µM | DU-145 > 100 µM | SK-MEL-28 > 100 µM | SN12C > 100 µM | SNB-75 > 100 µM

CSc1nc(O)c(C#N)c(-c2ccccc2)n1
inactive: KM12 > 100 µM | MCF7 > 100 µM | PC-3 > 100 µM | SK-MEL-2 > 100 µM | OVCAR-8 > 100 µM | HOP-62 > 100 µM | IGROV-1 > 100 µM | OVCAR-3 > 100 µM | HCC 2998 > 100 µM | NCI-H23 > 100 µM | OVCAR-4 > 100 µM | HCT-116 > 100 µM | OVCAR-5 > 100 µM | NCI/ADR-RES > 100 µM | DU-145 > 100 µM | SK-MEL-28 > 100 µM | SN12C > 100 µM | SNB-75 > 100 µM

COC(=O)CCSC1=CC(=O)c2nc3ccccc3c3ccnc1c23
inactive: KM12 16.2 µM | MCF7 20.2 µM | PC-3 15.4 µM | SK-MEL-2 23.2 µM | OVCAR-8 17.1 µM | HOP-62 33 µM | IGROV-1 16.7 µM | OVCAR-3 2.68 µM | HCC 2998 14.3 µM | NCI-H23 15.6 µM | OVCAR-4 19.8 µM | HCT-116 20.1 µM | OVCAR-5 42.7 µM | NCI/ADR-RES 15.3 µM | DU-145 22.2 µM | SK-MEL-28 21.9 µM | SN12C 19.7 µM | SNB-75 > 100 µM

COc1ccc(Oc2cccc(/C=C3/C(=O)Nc4ccccc43)c2)cc1
inactive: KM12 5.02 µM | MCF7 3.41 µM | PC-3 5.98 µM | SK-MEL-2 11.1 µM | OVCAR-8 16.9 µM | HOP-62 14.8 µM | IGROV-1 7.91 µM | OVCAR-3 7.89 µM | HCC 2998 9.31 µM | NCI-H23 3.23 µM | OVCAR-4 14 µM | HCT-116 3.6 µM | OVCAR-5 17.7 µM | NCI/ADR-RES 4.91 µM | DU-145 14.1 µM | Malme-3M 11.2 µM | SK-MEL-28 7.06 µM | SN12C 10.9 µM | SNB-75 15 µM

Cc1nn(CNc2ccc(F)c(Cl)c2)c(=S)n1/N=C/c1ccc(-c2ccc(Cl)cc2Cl)o1
inactive: KM12 20.5 µM | MCF7 18.2 µM | PC-3 16.4 µM | SK-MEL-2 22.6 µM | OVCAR-8 20.8 µM | LOX IMVI 16.6 µM | HOP-62 14.1 µM | IGROV-1 16.7 µM | OVCAR-3 17.3 µM | NCI-H23 20.1 µM | OVCAR-4 20.1 µM | HCT-116 15.7 µM | OVCAR-5 19.1 µM | NCI/ADR-RES 19.3 µM | DU-145 16.9 µM | SK-MEL-28 19.7 µM

c1ccc2c(Cc3nnc4sc(SSc5nn6c(Cc7c[nH]c8ccccc78)nnc6s5)nn34)c[nH]c2c1
inactive: KM12 22.9 µM | MCF7 15.1 µM | PC-3 19.3 µM | OVCAR-8 26.4 µM | HOP-62 16.2 µM | IGROV-1 2.99 µM | OVCAR-3 11.8 µM | HCC 2998 16.7 µM | NCI-H23 19.1 µM | OVCAR-4 58.1 µM | HCT-116 16 µM | OVCAR-5 26.2 µM | NCI/ADR-RES 20.3 µM | DU-145 26.3 µM | Malme-3M 31.3 µM | SK-MEL-28 33.5 µM | SN12C 18.7 µM | SNB-75 48.2 µM

C[C@H](C/C=C/C(C)(C)O)[C@H]1CC[C@@]2(C)[C@@H]3CC[C@H]4C(C)(C)[C@@H](O)CC[C@@]45C[C@@]35CC[C@]12C
inactive: KM12 24.7 µM | MCF7 35.2 µM | PC-3 26.3 µM | SK-MEL-2 17.3 µM | OVCAR-8 14.8 µM | LOX IMVI 11.7 µM | HOP-62 13.6 µM | IGROV-1 22.4 µM | OVCAR-3 50.5 µM | OVCAR-4 16.9 µM | HCT-116 18.2 µM | OVCAR-5 14.4 µM | NCI/ADR-RES 5.14 µM | DU-145 15.4 µM | SK-MEL-28 18.8 µM | SN12C 13 µM | SNB-75 20.3 µM

C[C@]12C(=O)C=CCC1=CC[C@@H]1[C@@H]2[C@H]2CC3(O)C(=O)O[C@@]4(C)[C@H]5C[C@@]6(C)[C@@H]7[C@@]2(O)[C@]1(OC[C@H]6C(=O)O5)O[C@]734 (stereo partly drawn)
inactive: KM12 30.5 µM | MCF7 31.7 µM | PC-3 41.9 µM | SK-MEL-2 23 µM | OVCAR-8 28.4 µM | LOX IMVI 27.4 µM | IGROV-1 40.1 µM | NCI-H23 24.2 µM | OVCAR-4 54.3 µM | HCT-116 31.8 µM | OVCAR-5 29 µM | NCI/ADR-RES > 100 µM | DU-145 58.2 µM | Malme-3M 74.8 µM | SK-MEL-28 28.4 µM | SN12C 30.1 µM | SNB-75 54.7 µM

COC(=O)[C@H]1CO[C@H]2C/C(C)=C/CC/C(C)=C/CC[C@@]3(C)O[C@@H]3C[C@H]21
inactive: KM12 9.57 µM | MCF7 16.9 µM | PC-3 15.3 µM | SK-MEL-2 18 µM | OVCAR-8 14.7 µM | HOP-62 15.8 µM | IGROV-1 16 µM | OVCAR-3 10.1 µM | HCC 2998 9.38 µM | NCI-H23 17.5 µM | OVCAR-4 9.48 µM | HCT-116 9.91 µM | OVCAR-5 > 50 µM | NCI/ADR-RES 10.7 µM | DU-145 23.7 µM | SK-MEL-28 13.4 µM | SN12C 10.8 µM | SNB-75 14.4 µM

NS(=O)(=O)c1nnc(NS(=O)(=O)C(F)(F)F)s1
inactive: KM12 > 100 µM | MCF7 > 100 µM | PC-3 > 100 µM | SK-MEL-2 > 100 µM | OVCAR-8 > 100 µM | HOP-62 > 100 µM | OVCAR-3 > 100 µM | HCC 2998 > 100 µM | NCI-H23 77.3 µM | OVCAR-4 > 100 µM | HCT-116 > 100 µM | OVCAR-5 > 100 µM | NCI/ADR-RES > 100 µM | DU-145 > 100 µM | Malme-3M > 100 µM | SK-MEL-28 > 100 µM | SNB-75 > 100 µM

CC(C)Oc1c(C2(c3ccccc3O)SCCCS2)c(=O)c1=O
inactive: KM12 51.5 µM | MCF7 > 100 µM | PC-3 > 100 µM | SK-MEL-2 > 100 µM | OVCAR-8 > 100 µM | LOX IMVI > 100 µM | HOP-62 > 100 µM | IGROV-1 30.3 µM | OVCAR-3 79.3 µM | NCI-H23 89.3 µM | OVCAR-4 > 100 µM | HCT-116 > 100 µM | OVCAR-5 38.7 µM | NCI/ADR-RES > 100 µM | DU-145 93.3 µM | SK-MEL-28 > 100 µM | SN12C > 100 µM | SNB-75 36.1 µM
